Test results from article PMC8536414, “The LC-MS/MS-Based Measurement of Isopimaric Acid in Rat Plasma and Application of Pharmacokinetics” (BioMed Research International, 2021).
Like-named read-outs stand apart in the source and are kept apart here.

Legend:
[1] = Pharmacokinetic study of IPA in rats after i.v. or oral administration (LC-MS/MS of plasma, noncompartmental analysis); format: in vivo, Sprague-Dawley rats; settings: for AUC(0-inf) / MRT / half-life / AUC(0-t) / bioavailability / CL/F / Tmax / T max1: rat; for AUC(0-t): read-out: AUC(0~24); for bioavailability: oral, read-out: absolute bioavailability; for Tmax: read-out: T max 2; for C max1 / C max2: rat plasma; for C max1: n = 5
Experimental: Male Sprague-Dawley rats (220-250 g) from Shanghai Slac Laboratory Animal Co., Ltd. (Shanghai, China) (2018(hu)-08-0013) were housed in a climate-controlled facility (22 ± 2°C, 46 ± 20% relative humidity, 12 h light/dark cycle) with unlimited food and water access. After a 7-day acclimatization period, 20 rats were randomly assigned to undergo the administration of IPA via p.o. administration (50, 100, or 200 mg/kg) or via i.v. injection (5 mg/kg) for pharmacokinetic analyses. All animal studies received approval from the Animal Ethics Committee of the Naval Military Medical University. After developing and validating the above LC-MS/MS approach, it was employed to assess the pharmacokinetics of IPA following its intravenous or oral administration to rats as per the approved protocols discussed above. Briefly, after acclimatization, rats were fasted for 12 h and then randomized to undergo treatment with a 5 mg/kg i.v. dose of IPA or with oral IPA doses of 50, 100, or 200 mg/kg (n = 5/group). All IPA solutions were prepared in physiological saline and thoroughly mixed with CMC-Na. Blood samples (~0.4 mL) from these rats were collected in heparinized tubes at 0, 0.083, 0.167, 0.25, 0.5, 0.75, 1, 2, 3, 4, 6, 8, and 12 h following i.v. injection or at 0.167, 0.333, 0.5, 0.75, 1,1.5, 2, 4, 6, 8, 12, and 24 h following oral administration. Blood samples were spun for 5 min at 1,500 × g, after which plasma was collected and stored at -20°C prior to analysis. Plasma IPA concentrations were determined using the calibration curve established above based on peak area ratios from individual injection samples. The mean residence time (MRT0-t), area under the blood concentration-time curve (AUC0-∞, AUC0-t), body clearance (CL/F), and elimination half-life (T1/2) were quantified with the DAS 3.2.6 program (Chinese Pharmacology Society) via a noncompartmental approach. Concentration-time curves were used to establish maximum concentration (Cmax) and time to maximum concentration (Tmax) values. Data are given as means ± standard deviation (S.D.). Absolute bioavailability (F %) was determined as follows: F% = AUC0 − ∞(p.o.) dose (i.v.)/AUC0 − ∞(i.v.) dose (p.o.) × 100%.

[2] = Stability of IPA in rat plasma QC samples under storage conditions; format: in vitro ADME; settings: for stability in rat plasma (in words): three QC concentrations; for Postpreparative, Measured: processed plasma sample; for Postpreparative, Measured / Long-term, Measured / Short-term, Measured / Three freeze-thaw, Measured: n = 5; for Long-term, Measured / Short-term, Measured / Three freeze-thaw, Measured: rat plasma
Experimental: IPA stability was examined by evaluating five replicate samples at the three QC concentration levels in a range of storage conditions. […] Processed sample stability was measured by incubating them for 24 h in the room temperature autosampler. In addition, long-term stability was measured following a 30-day storage period at -20°C, and freeze-thaw stability was measured by cycling samples from -20°C to 20°C three times. When the assay values associated with these samples were within a ±15% deviation from the nominal value, samples were considered to be stable.

[3] = male, Sprague-Dawley, plasma, iv, i.v. 5 mg/kg
[4] = male, Sprague-Dawley, plasma, po, p.o. 50 mg/kg
[5] = male, Sprague-Dawley, plasma, po, p.o. 100 mg/kg
[6] = male, Sprague-Dawley, plasma, po, p.o. 200 mg/kg

- AUC(0-inf) [1, 3]: 818 ± 66.2 ng·h/mL
- MRT [1, 3]: 1.4 ± 0.4 h
- half-life [1, 3]: 396 ± 354 min
- AUC(0-t) [1, 3]: 745 ± 140 ng·h/mL
- bioavailability ([1]; male, Sprague-Dawley, plasma, p.o. 50 mg/kg vs i.v. 5 mg/kg): 11.9%
- bioavailability ([1]; male, Sprague-Dawley, plasma, p.o. 100 mg/kg vs i.v. 5 mg/kg): 17.5%
- AUC(0-inf) [1, 4]: 923 ± 614 ng·h/mL
- MRT [1, 4]: 9.3 ± 1.3 h
- half-life [1, 4]: 624 ± 588 min
- AUC(0-t) [1, 4]: 887 ± 636 ng·h/mL
- CL/F ([1]; male, Sprague-Dawley, plasma, po, p.o. 50 mg/kg, read-out: CL/F (converted)): 1170 mL/min/kg
- Tmax [1, 4]: 6.4 ± 2.6 h
- AUC(0-inf) [1, 5]: 2640 ± 1640 ng·h/mL
- MRT [1, 5]: 7.6 ± 1.3 h
- half-life [1, 5]: 330 ± 138 min
- AUC(0-t) [1, 5]: 2600 ± 1630 ng·h/mL
- CL/F ([1]; male, Sprague-Dawley, plasma, po, p.o. 100 mg/kg, read-out: CL/F (converted)): 983 mL/min/kg
- Tmax [1, 5]: 6 ± 1.4 h
- AUC(0-inf) [1, 6]: 3190 ± 1720 ng·h/mL
- MRT [1, 6]: 7.9 ± 0.5 h
- half-life [1, 6]: 216 ± 60 min
- AUC(0-t) [1, 6]: 3180 ± 1720 ng·h/mL
- CL/F ([1]; male, Sprague-Dawley, plasma, po, p.o. 200 mg/kg, read-out: CL/F (converted)): 1330 mL/min/kg
- Tmax [1, 6]: 8.8 ± 1.1 h
- C max1 ([1]; i.v. 5 mg/kg): 1740.1 ± 456.0 ng/mL
- C max2 ([1]; p.o. 50 mg/kg): 61.6 ± 46.2 ng/mL
- C max1 ([1]; p.o. 50 mg/kg): 83.7 ± 32.9 ng/mL
- C max2 ([1]; p.o. 100 mg/kg): 284.9 ± 183.4 ng/mL
- C max1 ([1]; p.o. 100 mg/kg): 296.4 ± 75.1 ng/mL
- C max2 ([1]; p.o. 200 mg/kg): 286.9 ± 217.2 ng/mL
- C max1 ([1]; p.o. 200 mg/kg): 246.23 ± 94.4 ng/mL
- CL/F ([1]; i.v. 5 mg/kg): 6.1 ± 0.5 L/h
- T max1 ([1]; i.v. 5 mg/kg): 0 ± 0 min
- T max1 ([1]; p.o. 50 mg/kg): 54 ± 6 min
- T max1 ([1]; p.o. 100 mg/kg): 36 ± 18 min
- T max1 ([1]; p.o. 200 mg/kg): 39 ± 6 min
- stability in rat plasma (in words) ([2]; 3 rounds of freeze-thawing): remained stable
- stability in rat plasma (in words) ([2]; 3 h room temperature incubation): remained stable
- stability in rat plasma (in words) ([2]; 30 days of storage at -20°C): remained stable
- Postpreparative, Measured ([2]; spiked 10 ng·mL^−1, 24 h room temperature autosampler): 9.56 ± 0.88 ng/mL
- Postpreparative, Measured ([2]; spiked 400 ng·mL^−1, 24 h room temperature autosampler): 371.2 ± 1.44 ng/mL
- Postpreparative, Measured ([2]; spiked 2000 ng·mL^−1, 24 h room temperature autosampler): 2012 ± 0.12 ng/mL
- Long-term, Measured ([2]; spiked 10 ng·mL^−1, 30 days at -20°C): 10.79 ± 1.46 ng/mL
- Short-term, Measured ([2]; spiked 10 ng·mL^−1, room temperature): 9.65 ± 0.07 ng/mL
- Three freeze-thaw, Measured ([2]; spiked 10 ng·mL^−1, three cycles -20°C to 20°C): 10.27 ± 0.56 ng/mL
- Long-term, Measured ([2]; spiked 400 ng·mL^−1, 30 days at -20°C): 363.5 ± 1.82 ng/mL
- Short-term, Measured ([2]; spiked 400 ng·mL^−1, room temperature): 407.0 ± 0.34 ng/mL
- Three freeze-thaw, Measured ([2]; spiked 400 ng·mL^−1, three cycles -20°C to 20°C): 421.8 ± 1.08 ng/mL
- Long-term, Measured ([2]; spiked 2000 ng·mL^−1, 30 days at -20°C): 1908.3 ± 0.92 ng/mL
- Short-term, Measured ([2]; spiked 2000 ng·mL^−1, room temperature): 1840 ± 1.6 ng/mL
- Three freeze-thaw, Measured ([2]; spiked 2000 ng·mL^−1, three cycles -20°C to 20°C): 1967 ± 0.34 ng/mL
- postpreparation stability (in words) ([2]; room temperature for 24 h in the autosampler): remained stable
SMILES: C=C[C@@]1(C)CC[C@H]2C(=CC[C@@H]3[C@]2(C)CCC[C@@]3(C)C(=O)O)C1 [IPA, isopimaric acid]
